From US9572760B2, “Uses of compounds and mixtures from Antrodia cinnamomea mycelia” (Simpson Biotech Co., Ltd., priority 2013, dated 2017)

Columns and labels:
cirrhotic animals [1] = assay: Biochemical analysis of serum (liver damage parameters) in DEN cirrhotic animal model; assay type: in vivo, Wistar rats; conditions: compound B 7 mg/kg, compound C 14 mg/kg, ACM 320 mg/kg/day, gastric tube, 5th to 11th week, vs control group
Description: Samples of 1 ml blood were gathered from the retro-orbital plexus of each […] and immediately centrifuged at 1300×g at 4° C., plasma was kept at −20° C. for liver function tests. Alanine aminotranferease (ALT), aspartate aminotransferase (AST), total bilirubin and Gamma-glutamyl transpeptidase (γ-GT) levels were determined using commercial enzymatic kits with a colorimetric analyzer (Dri-Chem 3000, Fuji Photo Film Co, Tokyo, Japan).

[2] = system: pre-fibrotic genes including α-SMA, TIMP, Collagen type I and TGF-β1; assay: Real-time RT-PCR of pre-fibrotic gene expression in liver of cirrhotic animals; assay type: in vivo, Wistar rats; conditions: compound B 7 mg/kg, compound C 14 mg/kg, ACM 320 mg/kg
Description: Sample tissues of rat livers were measured about 0.5×0.5 cm in area. Each of tissue was homogenized in 1 mL of TRIzol buffer (Invitrogen, Carlsbad, Calif., USA) with a motorized pestle, and then mixed with 0.5 mL chloroform/isoamyl alcohol (24:1), and was centrifuged at 12,000×g for 10 min at 4° C. The supernatant was transferred to a fresh tube, and isopropanol was added, mix well and stored at −80° C. overnight. The reaction mixture was centrifuged at 12,000×g for 30 min at 4° C. to produce a rude RNA pallet, the pellet was washed with 70% ethanol and air-dried. The concentrations of total RNA were measured by absorbance at 260 nm using a NanoDrop ND-1000 (NanoDrop, USA). Reverse transcription reaction was performed using a commercially available set of High Capacity RNA-to-cDNA Kit (Applied Biosystems, USA). cDNA was prepared from 2 μg of total RNA per 20 μl reaction, according to the manufacturer's instructions—37° C. for 60 minutes, 95° C. for 5 minutes, and hold at 4° C. The resulting cDNA was to a final concentration of 100 ng/μl and constituted a matrix in further experiments. Amplification and detection the gene expression by real-time PCR were performed using StepOne plus Real-time PCR System (Applied Biosystems, USA). Samples were assayed in a 10 μl reaction mixture containing 2 μl of template DNA, 5 μl of 2× TaqMan PCR Master Mix (Applied Biosystems, Life Technologies, Foster City, Calif., USA), 0.5 μl of 20× assay mix containing probe, forward and reverse primer (Applied Biosystems, Life Technologies, Foster City, Calif., USA), whereby qPCR targets with the following information were used: (a) Rat α-SMA, Assay ID Rn01759928_g1, (b) Rat TIMP, Assay ID Rn00587558_m1, (c) Rat TGF-β1, Assay ID Rn00572010_m1, (d) Rat Collagen I, Assay ID Rn 01463838_m1, (e) Rat CuZnSOD, Assay ID Rn00566938_m1, (f) Rat MnSOD, Assay ID Rn00690587_g1, (g) Rat Catalase, Assay ID Rn00560930_m1, (h) Rat Glutathione peroxidase, Assay ID Rn00577994_g1, (i) Rat NADPH oxidase, Assay ID Rn00585380_m1 and (j) Rat GAPDH, Assay ID Rn1462662_g1. To control variation in mRNA concentration, all results were normalized to the housekeeping gene, GAPDH. Relative quantitation was performed using the comparative ΔΔCt method according to the manufacture's instructions. The cycling conditions used were as follows: 50° C. for 2 min, 95° C. for 10 min followed by 40 cycles of 95° C. for 15 s and 60° C. for 1 min each.

HSC = HSC proliferation by BrdU assay; assay type: cell-based; conditions: 24-80 μM; for HSC proliferation (BrdU assay): 24 h, 48 h and 72 h
Description: The Cell Proliferation ELISA, BrdU kit was designed to quantitate cell proliferation bases on the measurement of BrdU incorporation during DNA synthesis in proliferation cells. Briefly, cells (1×10^4 cells/well) were seeded in 100 μl medium in a 96-well plate (Nunc, Denmark) and cultured for 24 h to allow the cells to attach and then treated with three different concentrations ([…]) of either Compound A, B, C and D for 24 h, 48 h and 72 h and the plates were incubated in 37° C. After incubation, the culture medium was labeled with 10 μl/well BrdU (Roche Diagnostic Inc.), and the cells were reincubated for addition 16 h at 37° C. Labeling medium was removed using 10 min centrifuge at 200×g and blow dried. Cells were fixed using 200 μl FixDenat solution and incubated for 30 min at room temperature. Removing the FixDenat solution, 100 μl of anti-BrdU-POD was added and incubated for 90 min at room temperature. After the incubation period, microplates were washed three times with PBS buffer and 100 μl substrate solution was added and incubated for 30 min. Stop solution was added (25 μl of 1 M H2SO4) and absorbance of the samples was measured using ELISA reader at 450 nm.

cirrhotic animals [3] = assay: Liver fibrosis: hydroxyproline content in the liver and Sirius red staining, DEN cirrhotic animal model; conditions: compound B 7 mg/kg, compound C 14 mg/kg, ACM 320 mg/kg, vs control group

Which results are given for CC(C)=CCOc1ccc(C2=C(CC(C)C)C(=O)NC2=O)cc1 [Compound B, 3-isobutyl-4-[4-(3-methyl-2-butenyloxy)phenyl]-1H-pyrrol-2,5-dione]?
serum Alanine aminotranferease (ALT) level (cirrhotic animals [1]): significantly reduced; serum Gamma-glutamyl transpeptidase (γ-GT) level (cirrhotic animals [1]): significantly reduced; serum aspartate aminotransferase (AST) level (cirrhotic animals [1]): significantly reduced; serum total bilirubin level (cirrhotic animals [1]): significantly reduced; Collagen type I gene expression in liver [2]: reduced significantly; TGF-β1 gene expression in liver [2]: reduced significantly; TIMP gene expression in liver [2]: reduced significantly; α-SMA gene expression in liver [2]: reduced significantly; potency of effect on HSC proliferation and apoptosis compared to other compounds (HSC): most potent effect; HSC proliferation (BrdU assay) (HSC): markedly proliferation inhibition; liver cirrhosis (hydroxyproline levels and Sirius red-positive areas) (cirrhotic animals [3]): markedly ameliorated

Which “serum Alanine aminotranferease (ALT) level” value (cirrhotic animals [1]) does the source give for CC(C)=CCOc1ccc(C2=C(CC(C)C)C(=O)N(O)C2=O)cc1 [Compound C, 3-isobutyl-4-[4-(3-methyl-2-butenyloxy)phenyl]-1H-pyrrol-1-ol-2,5-dione] here?
Its value is “significantly reduced”.

And the “serum Gamma-glutamyl transpeptidase (γ-GT) level” value (cirrhotic animals [1])?
Its value is “significantly reduced”.

And the “serum aspartate aminotransferase (AST) level” value (cirrhotic animals [1])?
Its value is “significantly reduced”.

What about the “serum total bilirubin level” value (cirrhotic animals [1]) of the same molecule?
Its value is “significantly reduced”.

What about the “Collagen type I gene expression in liver” value [2] of the same molecule?
The value was “reduced significantly”.

What about the “TGF-β1 gene expression in liver” value [2] of the same molecule?
Its value is “reduced significantly”.

And the “TIMP gene expression in liver” value [2]?
Its value is “reduced significantly”.

What about the “α-SMA gene expression in liver” value [2] of the same molecule?
The value was “reduced significantly”.

And the “HSC proliferation (BrdU assay)” value (HSC)?
The value was “markedly proliferation inhibition”.

And the “liver cirrhosis (hydroxyproline levels and Sirius red-positive areas)” value (cirrhotic animals [3])?
Its value is “markedly ameliorated”.
